Values of other authors, collected in patent publication US20070021605A1, “PROCESS AND COMPOSITION FOR MAKING OLANZAPINE FORM I” (priority 2005, published 2007).

Conditions: water, pH 6.8; free base

In the case of Cc1cc2c(s1)Nc1ccccc1N=C2N1CCN(C)CC1 [Olanzapine], the solubility is listed as “about 0.02 mg/ml”.
